PMC10108266, “Pharmacokinetic characteristics of golidocitinib, a highly selective JAK1 inhibitor, in healthy adult participants” (Frontiers in Immunology, 2023)
Read-outs that look alike come from different tables or passages of the source.

What was measured:
[1] = Pooled JACKPOT2/JACKPOT3 SAD analysis of the effect of race on PK; type: in vivo, human; details: for Dose normalized AUC0-inf, GLS Mean / Dose normalized AUC0-t, GLS Mean / Dose normalized Cmax, GLS Mean: ANCOVA; for Vd/F / half-life: human, plasma, oral
Experimental: Assessment of inter-ethnic difference of golidocitinib PK: The primary analyses of AUC0–t, AUC0–inf, and Cmax (log-transformed dose-normalized PK parameters) were performed using an analysis of covariance (ANCOVA) model, with the ethnic group as a fixed effect and dose (log scale) as a covariate. The analysis of variance (ANOVA) model was built for the secondary PK endpoints (log-transformed CL/F, Vz/F, and t1/2) with the ethnic group as a fixed effect. The Black/Caucasian and Asian/Caucasian ratios of the geometric mean were calculated by taking the antilogarithm of the difference between group means and corresponding 90% confidence intervals (CIs) in the log scale. Other analyses are descriptive, and no formal statistical comparison is performed for pooled JACKPOT2 and JACKPOT3 data. As the study design of SAD cohorts in JACKPOT2 and JACKPOT3 studies was similar, pooled analysis was performed. The race factor is the focus potentially used for the exposure comparison. A total of 62 participants were included in the analysis (11 Caucasians, 19 Blacks and 32 Asians).

[2] = Clearance pathways (available data); type: in vivo, human
[3] = JACKPOT2 MAD urinary PK (Day 14); type: in vivo, human; details: for CLtotal: CL/F * F (0.7 from PBPK model); for Fe0-t: CLr/CLtotal; for Ae0-t: urine 0-24 hour on Day 14; for CL renal: human, oral
Excerpt: In the SAD cohorts, serial blood samples were obtained on Day 1 at pre-dose, and at 0.5, 1, 1.5, 2, 3, 4, 6, 10, 14, 24 (Day 2), 48 (Day 3), 72 (Day 4), 120 (Day 6), 168 (Day 8) and 216 (Day 10) hours post-dose for plasma PK analysis. A similar sampling schedule was undertaken for the MAD cohorts on Day 1 and Day 14, with additional trough samples obtained on Days 5, Day 8, and Day 11. In the MAD cohorts, urine samples were collected on Day 14 during the collection intervals of 0-4, 4-10, and 10-24 hours following the last dose for urine PK analysis. Plasma and urine samples were analyzed by Frontage Laboratories Inc. (New Jersey, USA) using a validated LC/MS/MS bioanalytical method to determine golidocitinib concentrations. Cross validation in plasma was successful between Frontage Laboratories Inc. (New Jersey, USA) and Frontage Laboratories Inc. (Shanghai) using clinical samples and spiked quality control samples.
The mean (SD) amount of golidocitinib excreted in the urine over the collection period and renal clearance are presented in Table 2B . The average amount of golidocitinib excreted in the urine increased in an approximately dose proportional manner from 25 mg to 100 mg. […] The renal excretion fraction (Fe0-t) is helpful to compare the renal clearance (CLr) with total clearance (CLtotal) and determine the contribution of renal clearance in the drug elimination. It was calculated by the equation Fe0-t = CLr/CLtotal. The CL/F values were obtained from the two Phase I studies after the oral administration. Since the pharmacokinetics of golidocitinib after intravenous injection was not studied, the bioavailability value (F) was calculated by physiologically based pharmacokinetic (PBPK) model that incorporated compound specific information and independent prior knowledge on the physiology and biology at the organism.

[4] = set-up: method as in JACKPOT5, NCT04225208; details: concluded from metabolic profile in human, radiolabeled mass balance study in 8 healthy participants ref JACKPOT5, NCT04225208; cited from earlier work

COc1nn(C)cc1Nc1nccc(-c2c[nH]c3c(NC(=O)[C@@H](C)N4CCN(C)CC4)cccc23)n1 [golidocitinib, (2R)-N-[3-[2-[(3-Methoxy-1-methyl-pyrazol-4-yl)amino]pyrimidin-4-yl]-1H-indol-7-yl]-2-(4-methylpiperazin-1-yl)propenamide]
CL/F, Geometric Mean (CV%) ([1]; Asian, n 24, single dose): 20.07 (21.59) L/hr
Dose normalized AUC0-inf, Geometric Mean (CV%) ([1]; Asian, n 24, single dose): 49.82 (21.63) hr*ng/mL/mg
Dose normalized AUC0-t, Geometric Mean (CV%) ([1]; Asian, n 24, single dose): 48.15 (23.34) hr*ng/mL/mg
Dose normalized Cmax, Geometric Mean (CV%) ([1]; Asian, n 24, single dose): 1.70 (24.14) ng/mL/mg
Dose normalized AUC0-inf, GLS Mean ([1]; Asian, single dose): 49.76 ng·h/mL/mg
Dose normalized AUC0-t, GLS Mean ([1]; Asian, single dose): 47.50 ng·h/mL/mg
Dose normalized Cmax, GLS Mean ([1]; Asian, single dose): 1.66 ng/mL/mg
CL/F, GLS Mean ([1]; Asian, single dose, ANOVA): 20.07 L/h
CL/F, Ratio of GLS means ([1]; Asian/Caucasian): 0.88
Dose normalized AUC0-inf, Ratio of GLS means ([1]; Asian/Caucasian): 1.2
Dose normalized AUC0-t, Ratio of GLS means ([1]; Asian/Caucasian): 1.1
Dose normalized Cmax, Ratio of GLS means ([1]; Asian/Caucasian): 1.4
Vz/F, Ratio of GLS means ([1]; Asian/Caucasian): 0.76
t1/2, Ratio of GLS means ([1]; Asian/Caucasian): 0.87
Dose normalized AUC0-inf, Geometric Mean (CV%) ([1]; Black, n 10 (5 mg group not included), single dose): 51.54 (22.55) hr*ng/mL/mg
CL/F, Geometric Mean (CV%) ([1]; Black, n 10, single dose): 19.40 (22.55) L/hr
Dose normalized AUC0-t, Geometric Mean (CV%) ([1]; Black, n 13, single dose): 46.51 (23.98) hr*ng/mL/mg
Dose normalized Cmax, Geometric Mean (CV%) ([1]; Black, n 13, single dose): 1.12 (26.07) ng/mL/mg
Dose normalized AUC0-inf, GLS Mean ([1]; Black, single dose): 52.05 ng·h/mL/mg
Dose normalized AUC0-t, GLS Mean ([1]; Black, single dose): 47.72 ng·h/mL/mg
Dose normalized Cmax, GLS Mean ([1]; Black, single dose): 1.19 ng/mL/mg
CL/F, GLS Mean ([1]; Black, single dose, ANOVA): 19.40 L/h
CL/F, Ratio of GLS means ([1]; Black/Caucasian): 0.85
Dose normalized AUC0-inf, Ratio of GLS means ([1]; Black/Caucasian): 1.2
Dose normalized AUC0-t, Ratio of GLS means ([1]; Black/Caucasian): 1.1
Dose normalized Cmax, Ratio of GLS means ([1]; Black/Caucasian): 1.0
Vz/F, Ratio of GLS means ([1]; Black/Caucasian): 1.1
t1/2, Ratio of GLS means ([1]; Black/Caucasian): 1.3
Dose normalized AUC0-inf, Geometric Mean (CV%) ([1]; Caucasian, n 6 (5 mg group not included), single dose): 43.62 (23.48) hr*ng/mL/mg
CL/F, Geometric Mean (CV%) ([1]; Caucasian, n 6, single dose): 22.92 (23.48) L/hr
Dose normalized AUC0-t, Geometric Mean (CV%) ([1]; Caucasian, n 7, single dose): 42.59 (28.57) hr*ng/mL/mg
Dose normalized Cmax, Geometric Mean (CV%) ([1]; Caucasian, n 7, single dose): 1.17 (30.17) ng/mL/mg
Dose normalized AUC0-inf, GLS Mean ([1]; Caucasian, single dose): 43.13 ng·h/mL/mg
Dose normalized AUC0-t, GLS Mean ([1]; Caucasian, single dose): 42.52 ng·h/mL/mg
Dose normalized Cmax, GLS Mean ([1]; Caucasian, single dose): 1.16 ng/mL/mg
CL/F, GLS Mean ([1]; Caucasian, single dose, ANOVA): 22.92 L/h
Vd/F ([1]; Asian, n 24, single dose, read-out: Vz/F, Geometric Mean (CV%)): 1020 L
half-life ([1]; Asian, n 24, single dose, read-out: t1/2, Geometric Mean (CV%) (converted)): 35.4 h
Vd/F ([1]; Asian, single dose, ANOVA, read-out: Vz/F, GLS Mean): 1020 L
half-life ([1]; Asian, single dose, ANOVA, read-out: t1/2, GLS Mean (converted)): 35.4 h
Vd/F ([1]; Black, n 10, single dose, read-out: Vz/F, Geometric Mean (CV%)): 1420 L
half-life ([1]; Black, n 10, single dose, read-out: t1/2, Geometric Mean (CV%) (converted)): 50.9 h
Vd/F ([1]; Black, single dose, ANOVA, read-out: Vz/F, GLS Mean): 1420 L
half-life ([1]; Black, single dose, ANOVA, read-out: t1/2, GLS Mean (converted)): 50.9 h
Vd/F ([1]; Caucasian, n 6, single dose, read-out: Vz/F, Geometric Mean (CV%)): 1350 L
half-life ([1]; Caucasian, n 6, single dose, read-out: t1/2, Geometric Mean (CV%) (converted)): 40.8 h
Vd/F ([1]; Caucasian, single dose, ANOVA, read-out: Vz/F, GLS Mean): 1350 L
half-life ([1]; Caucasian, single dose, ANOVA, read-out: t1/2, GLS Mean (converted)): 40.8 h
hepatic clearance, share of clearance [2]: 70-80%
renal excretion, share of clearance [2]: 20-30%
CLtotal ([3]; 25 mg once daily 14 days): 15.2 L/h
Fe0-t ([3]; 25 mg once daily 14 days): 20.9%
Ae0-t ([3]; 25 mg once daily 14 days, mean (SD)): 4.94 (1.23) mg
CLtotal ([3]; 50 mg once daily 14 days): 15.5 L/h
Fe0-t ([3]; 50 mg once daily 14 days): 23.9%
Ae0-t ([3]; 50 mg once daily 14 days, mean (SD)): 11.7 (1.69) mg
CLtotal ([3]; 100 mg once daily 14 days): 13.4 L/h
Fe0-t ([3]; 100 mg once daily 14 days): 20.2%
Ae0-t ([3]; 100 mg once daily 14 days, mean (SD)): 19.2 (4.11) mg
CL renal ([3]; urine and plasma, 25 mg once daily 14 days, Ae0-t/AUC0-t, mean (SD), read-out: CLr (converted)): 53 mL/min
CL renal ([3]; urine and plasma, 50 mg once daily 14 days, Ae0-t/AUC0-t, mean (SD), read-out: CLr (converted)): 61.5 mL/min
CL renal ([3]; urine and plasma, 100 mg once daily 14 days, Ae0-t/AUC0-t, mean (SD), read-out: CLr (converted)): 45.2 mL/min
CL renal ([3]; urine, US participants, 25 mg to 100 mg, read-out: mean renal clearance): 45.2 to 61.5 mL/min
oral bioavailability [4]: > 80%
